SMILES strings stand for the structures.

The values that follow come from patent US7109193B2, “Tricyclic diazepines tocolytic oxytocin receptor antagonists” (Wyeth, priority 2001, dated 2006).

For this experiment, the target named is T1, human vasopressin V2 receptor subtype (Homo sapiens, UniProt P30518).
T1 construct: host or cells: CHO cells (pZeoSV vector)
As to the kind of experiment: Vasopressin binding in Chinese Hamster Ovary cell membranes expressing human vasopressin V2 subtype receptors. The conditions noted are these: 100 nM, CHO cell membranes, [3H]arginine vasopressin, values without parentheses. The method in brief: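 Radioligand displacement on membranes from CHO cells stably expressing human V2 receptor, 25 to 50 μg protein/well, in 50 mM Tris-HCl pH 7.4 with MgCl2, BSA and protease inhibitors. [^3H]arginine vasopressin (8 nM working solution) incubated 60 min at room temperature; bound label measured by filtration and scintillation counting.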

T1 sequence (P30518 whole entry): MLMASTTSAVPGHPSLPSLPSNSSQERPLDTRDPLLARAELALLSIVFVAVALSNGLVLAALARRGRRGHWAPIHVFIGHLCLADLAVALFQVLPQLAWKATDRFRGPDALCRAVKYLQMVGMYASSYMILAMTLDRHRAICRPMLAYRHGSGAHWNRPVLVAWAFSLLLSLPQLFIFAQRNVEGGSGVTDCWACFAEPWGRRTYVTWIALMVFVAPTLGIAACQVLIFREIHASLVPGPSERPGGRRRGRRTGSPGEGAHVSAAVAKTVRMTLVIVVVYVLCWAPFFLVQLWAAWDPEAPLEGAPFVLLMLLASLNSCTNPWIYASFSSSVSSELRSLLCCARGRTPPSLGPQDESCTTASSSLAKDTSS

For the compound `COc1cccc(-c2cc(OC)c(C(=O)N3Cc4ccc(C(=O)N[C@@H](Cc5c[nH]cn5)C(N)=O)n4Cc4ccccc43)cc2Cl)c1` [Example 287, N-[(1S)-2-Amino-1-(1H-imidazol-4-ylmethyl)-2-oxoethyl]-10-[(6-chloro-3,3′-dimethoxy[1,1′-biphenyl]-4-yl)carbonyl]-10,11-dihydro-5H-pyrrolo[2,1-c][1,4]benzodiazepine-3-carboxamide], the inhibition at 0.1 µM was determined as 26%.

Turning to `COc1ccccc1-c1ccc(C(=O)N2Cc3ccc(C(=O)N[C@@H](Cc4c[nH]cn4)C(N)=O)n3Cc3ccccc32)cc1C` [Example 288, N-[(1S)-2-Amino-1-(1H-imidazol-4-ylmethyl)-2-oxoethyl]-10-[(2′-methoxy-2-methyl[1,1′-biphenyl]4-yl)carbonyl]-10,11-dihydro-5H-pyrrolo[2,1-c][1,4]benzodiazepine-3-carboxamide], the inhibition at 0.1 µM turned out to be 32%. `COc1cccc(-c2ccc(C(=O)N3Cc4ccc(C(=O)n5ccnc5)n4Cc4ccccc43)cc2C)c1` [Example 289, 1H-Imidazol-1-yl-{10-[(3′-methoxy-2-methyl[1,1′-biphenyl]-4-yl)carbonyl]-10,11-dihydro-5H-pyrrolo[2,1-c][1,4]benzodiazepin-3-yl}methanone]: the inhibition at 0.1 µM worked out at 7%. As for `COc1cc(C(=O)N2Cc3ccc(C(=O)n4ccnc4)n3Cc3ccccc32)ccc1-c1ccccc1C` [Example 290, 1H-Imidazol-1-yl-{10-[(2-methoxy-2′-methyl[1,1′-biphenyl]-4-yl)carbonyl]-10,11-dihydro-5H-pyrrolo[2,1-c][1,4]benzodiazepin-3-yl}methanone], the inhibition at 0.1 µM was -6%.

As to `COc1cc(C(=O)N2Cc3ccc(C(=O)n4ccnc4)n3Cc3ccccc32)ccc1-c1cccc2ccccc12` [Example 291, 1H-Imidazol-1-yl-{10-[3-methoxy-4-(1-naphthyl)benzoyl]-10,11-dihydro-5H-pyrrolo[2,1-c][1,4]benzodiazepin-3-yl}methanone], the inhibition at 0.1 µM was found to be 5%. `COc1ccccc1-c1ccc(C(=O)N2Cc3ccc(C(=O)n4ccnc4)n3Cc3ccccc32)cc1C` [Example 292, 1H-Imidazol-1-yl-{10-[(2′-methoxy-2-methyl[1,1′-biphenyl]-4-yl)carbonyl]-10,11-dihydro-5H-pyrrolo[2,1-c][1,4]benzodiazepin-3-yl}methanone]: the inhibition at 0.1 µM is -7%. For `COc1ccccc1-c1ccc(C(=O)N2Cc3ccc(C(=O)n4ccnc4)n3Cc3ccccc32)cc1OC` [Example 293, {10-[(2,2′-Dimethoxy[1,1′-biphenyl]-4-yl)carbonyl]-10,11-dihydro-5H-pyrrolo[2,1-c][1,4]benzodiazepin-3-yl}(1H-imidazol-1-yl)methanone] the value was 3%. For the compound `Cc1cc(C(=O)N2Cc3ccc(C(=O)n4ccnc4)n3Cc3ccccc32)ccc1-c1ccccc1C(F)(F)F` [Example 294, 1H-Imidazol-1-yl(10-{[2-methyl-2′-(trifluoromethyl)[1,1′-biphenyl]-4-yl]carbonyl}-10,11-dihydro-5H-pyrrolo[2,1-c][1,4]benzodiazepin-3-yl)methanone], the inhibition at 0.1 µM is -2%. For the compound `COc1ccccc1-c1ccc(C(=O)N2Cc3ccc(C(=O)N[C@@H]4CN5CCC4CC5)n3Cc3ccccc32)cc1C` [Example 295, N-[(3S)-1-Azabicyclo[2.2.2]oct-3-yl]-10-[(2′-methoxy-2-methyl[1,1′-biphenyl]-4-yl)carbonyl]-10,11-dihydro-5H-pyrrolo[2,1-c][1,4]benzodiazepine-3-carboxamide], the inhibition at 0.1 µM turned out to be 22%. `COc1ccccc1-c1ccc(C(=O)N2Cc3ccc(C(=O)N[C@H]4CN5CCC4CC5)n3Cc3ccccc32)cc1` [Example 296, N-[(3R)-1-Azabicyclo[2.2.2]oct-3-yl]-10-[(2′-methoxy[1,1′-biphenyl]-4-yl)carbonyl]-10,11-dihydro-5H-pyrrolo[2,1-c][1,4]benzodiazepine-3-carboxamide]: the inhibition at 0.1 µM came to 24%.

`COc1cc(-c2ccccc2C)c(Cl)cc1C(=O)N1Cc2ccc(C(=O)N[C@@H]3CN4CCC3CC4)n2Cc2ccccc21` [Example 297, N-[(3S)-1-Azabicyclo[2.2.2]oct-3-yl]-10-[(6-chloro-3-methoxy-2′-methyl-[1,1′-biphenyl]-4-yl)carbonyl]-10,11-dihydro-5H-pyrrolo[2,1-c][1,4]benzodiazepine-3-carboxamide]: the inhibition at 0.1 µM is 13%. In the case of `COc1ccccc1-c1ccc(C(=O)N2Cc3ccc(C(=O)N[C@H]4CN5CCC4CC5)n3Cc3ccccc32)cc1C` [Example 298, N-[(3R)-1-Azabicyclo[2.2.2]oct-3-yl]-10-[(2′-methoxy-2-methyl[1,1′-biphenyl]-4-yl)carbonyl]-10,11-dihydro-5H-pyrrolo[2,1-c][1,4]benzodiazepine-3-carboxamide], the inhibition at 0.1 µM is 29%. For `COc1ccccc1-c1ccc(C(=O)N2Cc3ccc(C(=O)N[C@H]4CN5CCC4CC5)n3Cc3ccccc32)cc1OC` [Example 299, N-[(3R)-1-Azabicyclo[2.2.2]oct-3-yl]-10-[(2,2′-dimethoxy[1,1′-biphenyl]-4-yl)carbonyl]-10,11-dihydro-5H-pyrrolo[2,1-c][1,4]benzodiazepine-3-carboxamide] the value was 22%. For `COc1ccccc1-c1ccc(C(=O)N2Cc3ccc(C(=O)N[C@@H]4CN5CCC4CC5)n3Cc3ccccc32)cc1OC` [Example 300, N-[(3S)-1-Azabicyclo[2.2.2]oct-3-yl]-10-[(2,2′-dimethoxy[1,1′-biphenyl]-4-yl)carbonyl]-10,11-dihydro-5H-pyrrolo[2,1-c][1,4]benzodiazepine-3-carboxamide] the value was 19%. For `Cc1cc(C(=O)N2Cc3ccc(C(=O)N[C@H]4CN5CCC4CC5)n3Cc3ccccc32)ccc1-c1ccccc1C(F)(F)F` [Example 301, N-[(3R)-1-Azabicyclo[2.2.2]oct-3-yl]-10-{[2-methyl-2′-(trifluoromethyl)[1,1′-biphenyl]-4-yl]carbonyl}-10,11-dihydro-5H-pyrrolo[2,1-c][1,4]benzodiazepine-3-carboxamide] the value was 9%; for `COc1cccc(-c2cc(OC)c(C(=O)N3Cc4ccc(C(=O)N[C@@H](CCCCNC(=O)OC(C)(C)C)C(N)=O)n4Cc4ccccc43)cc2Cl)c1` [Example 302, tert-Butyl (5S)-6-amino-5-[({10-[(6-chloro-3,3′-dimethoxy[1,1′-biphenyl]-4-yl)carbonyl]-10,11-dihydro-5H-pyrrolo[2,1-c][1,4]benzodiazepin-3-yl}carbonyl)amino]-6-oxohexylcarbamate], 17%.

Take `COc1ccccc1-c1ccc(C(=O)N2Cc3ccc(C(=O)N[C@@H](CCCCNC(=O)OC(C)(C)C)C(N)=O)n3Cc3ccccc32)cc1OC` [Example 303, tert-Butyl (5S)-6-amino-5-[({10-[(2,2′-dimethoxy[1,1′-biphenyl]-4-yl)carbonyl]-10,11-dihydro-5H-pyrrolo[2,1-c][1,4]benzodiazepin-3-yl}carbonyl)amino]-6-oxohexylcarbamate]: the inhibition at 0.1 µM is 14%. Regarding `COc1cc(-c2ccccc2C)c(Cl)cc1C(=O)N1Cc2ccc(C(=O)N[C@@H](CCCCNC(=O)OC(C)(C)C)C(N)=O)n2Cc2ccccc21` [Example 304, tert-Butyl (5S)-6-amino-5-[({10-[(6-chloro-3-methoxy-2′-methyl[1,1′-biphenyl]-4-yl)carbonyl]-10,11-dihydro-5H-pyrrolo[2,1-c][1,4]benzodiazepin-3-yl}carbonyl)amino]-6-oxohexylcarbamate], the inhibition at 0.1 µM amounted to 19%.

For `COc1cc(C(=O)N2Cc3ccc(C(=O)N4CCN(C)CC4)n3Cc3ccccc32)ccc1-n1c(C)ccc1C` [Example 306, {10-[4-(2,5-Dimethyl-1H-pyrrol-1-yl)-3-methoxybenzoyl]-10,11-dihydro-5H-pyrrolo[2,1-c][1,4]benzodiazepin-3-yl}(4-methyl-1-piperazinyl)methanone], the inhibition at 0.1 µM was 0%.

For `COc1cc(C(=O)N2Cc3ccc(C(=O)N4CCCN(C)CC4)n3Cc3ccccc32)ccc1-n1c(C)ccc1C` [Example 307, {10-[4-(2,5-Dimethyl-1H-pyrrol-1-yl)-3-methoxybenzoyl]-10,11-dihydro-5H-pyrrolo[2,1-c][1,4]benzodiazepin-3-yl}(4-methyl-1,4-diazepan-1-yl)methanone], the inhibition at 0.1 µM came to 8%. Take `COc1cc(C(=O)N2Cc3ccc(C(=O)NCCCN(C)C)n3Cc3ccccc32)ccc1-n1c(C)ccc1C` [Example 308, N-[3-(Dimethylamino)propyl]-10-[4-(2,5-dimethyl-1H-pyrrol-1-yl)-3-methoxybenzoyl]-10,11-dihydro-5H-pyrrolo[2,1-c][1,4]benzodiazepine-3-carboxamide]: the inhibition at 0.1 µM came out at 1%. For `COc1cc(C(=O)N2Cc3ccc(C(=O)N(C)CCN(C)C)n3Cc3ccccc32)ccc1-n1c(C)ccc1C` [Example 309, N-[2-(Dimethylamino)ethyl]-10-[4-(2,5-dimethyl-1H-pyrrol-1-yl)-3-methoxybenzoyl]-N-methyl-10,11-dihydro-5H-pyrrolo[2,1-c][1,4]benzodiazepine-3-carboxamide], the inhibition at 0.1 µM came out at 7%.

As for `COc1cc(C(=O)N2Cc3ccc(C(=O)N4CCC(N5CCCCC5)CC4)n3Cc3ccccc32)ccc1-n1c(C)ccc1C` [Example 311, {10-[4-(2,5-Dimethyl-1H-pyrrol-1-yl)-3-methoxy-benzoyl]-10,11-dihydro-5H-pyrrolo[2,1-c][1,4]benzodiazepin-3-yl}[4-(1-piperidinyl)-1-piperidinyl]-methanone], the inhibition at 0.1 µM worked out at 7%.

`COc1cc(C(=O)N2Cc3ccc(C(=O)NCCCn4ccnc4)n3Cc3ccccc32)ccc1-n1c(C)ccc1C` [Example 312, 10-[4-(2,5-Dimethyl-1H-pyrrol-1-yl)-3-methoxybenzoyl]-N-[3-(1H-imidazol-1-yl)propyl]-10,11-dihydro-5H-pyrrolo[2,1-c][1,4]benzodiazepine-3-carboxamide]: the inhibition at 0.1 µM turned out to be 3%.
